Measurements taken from US5086054A, “Novel arylcycloalkanepolyalkylamines” (SRI International, priority 1990, dated 1992).
“Also recorded” adds a separate entry of the source. Where two headings read alike, the source gives them in different places.

Key:
PCP RECEPTOR = experiment: PCP receptor binding assay ([3H]-TCP displacement, brain membranes); parameters: species or system guinea-pig (male Hartley); settings: for IC50: read-out: PCP RECEPTOR IC50
Description: (§1) This example illustrates testing of compounds in receptor binding assays.
(§2) Frozen brains from male Hartley guinea-pigs were obtained from Pel-Freeze (Rogers, Arkansas).
(§3) The brains plus cerebella were homogenized in 10 volumes (v/w) of 0.1M, pH 7.4, ice-cold Tris-HCl buffer with a Brinkmann polytron at setting 4 for 20 seconds. The homogenates were centrifuged at 20,000×g for 20 minutes at 4° C. The pellets were suspended in 10 volumes of ice-cold water and, after sitting on ice for 10 minutes, were centrifuged 30 minutes at 20,000×g at 4° C. The resulting pellets were resuspended in the above Tris buffer in ratio 1:100 (w/v) for σ receptor assays or in 5 mM Tris-HCl having pH 7.4, for PCP receptor assays. The final suspension was homogenized with a dounce glass-glass tissue grinder Wheaton "200", at small clearance (B), with three strokes before use. Two milliter aliquots of the brain membrane preparation, containing 1.7 mg of protein, were incubated in quadruplicate for one hour at 23° C. with competing mixture of ligand and radioligand. For σ receptors, [^3 H]-d-SKF-10,047, 2 nM was used. For PCP receptors, [^3 H] TCP [^3 H]-1-[1-(2-thienyl)cyclohexyl]piperidine), 1 nM was used. The nonspecific bindings were defined by 0.1 mM d-SKF-10,047 and 0.1 mM phencyclidine respectively for σ and PCP receptors. After incubation, free ligand was separated from bound ligand by rapid filtration through Whatman GF/C filters. The filters had been soaked before use in isoamyl alcohol-saturated water to prevent nonspecific [^3 H]-d-SKF-10,047 binding to the filter. In the PCP receptor assay, the filter was soaked in 0.5% polyethylenimine to reduce the filter binding of [^3 H]-TCP. After filtration, the trapped tissue was washed three times with 4 ml aliquots of 0.1 M ice-cold Tris buffer at pH 7.4 for σ receptors and 5 mM, ice-cold Tris buffer pH 7.4 for PCP receptors. The filters were transferred to 5 ml of liquid scintillation fluid and the retained radioactivity was measured by liquid scintillation spectrometry.
Programs in Biomed. 17:107 (1983)].

SIGMA RECEPTOR = target: T1, SIGMA RECEPTOR (Cavia porcellus, UniProt Q60492); experiment: Sigma receptor binding assay ([3H]-d-SKF-10,047 displacement, brain membranes); parameters: species or system guinea-pig (male Hartley); settings: for IC50: read-out: SIGMA RECEPTOR IC50
T1 construct: Two milliter aliquots of the brain membrane preparation, containing 1.7 mg of protein; tissue Pel-Freeze (Rogers, Arkansas); host or cells: guinea-pig brains plus cerebella, membranes
Description: as §1, §2, §3

[1] = Table 2, aryl ring substituents
[2] = Table 1, slope of dose response curve

T1 sequence (Q60492 whole entry): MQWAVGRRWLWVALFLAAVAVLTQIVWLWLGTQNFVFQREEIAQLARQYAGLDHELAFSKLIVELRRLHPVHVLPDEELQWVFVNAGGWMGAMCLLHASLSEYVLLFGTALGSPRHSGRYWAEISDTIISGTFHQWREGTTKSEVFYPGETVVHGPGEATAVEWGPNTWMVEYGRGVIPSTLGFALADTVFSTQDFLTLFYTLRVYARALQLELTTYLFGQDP

Q: How did the “potency at PCP receptors (in words)” value (PCP RECEPTOR) turn out when `Oc1ccc(C2(CN3CCCC3)CCCCC2)cc1` [Compound 30] was run?
A: inactive at PCP receptor sites

Q: What about the IC50 (PCP RECEPTOR; [1]) of the same molecule?
A: > 25 µM

Q: And the “potency at σ receptors (in words)” value (SIGMA RECEPTOR)?
A: did not improve potency as much as the 3-hydroxy derivative

Q: What about the “selectivity for σ receptors (in words)” value (SIGMA RECEPTOR) of the same molecule?
A: considerably improved selectivity for σ receptors

Q: And the “SIGMA RECEPTOR SLOPE” value (SIGMA RECEPTOR; Table 2)?
A: 0.78 ± 0.02

Q: What about the IC50 (SIGMA RECEPTOR; [1]) of the same molecule?
A: 1.74 µM

Q: Which IC50 (PCP RECEPTOR; [1]) does the source give for `COc1cccc(C2(CN3CCOCC3)CCCCC2)c1` [Compound 37] here?
A: > 25 µM

Q: And the IC50 (SIGMA RECEPTOR; [1])?
A: > 25 µM

Q: For `COc1ccc(C2(CN3CCCC3)CCCCC2)cc1OC` [Compound 35], which IC50 (PCP RECEPTOR; [1]) is on record?
A: > 25 µM

Q: And the “potency at σ receptors (in words)” value (SIGMA RECEPTOR)?
A: poor to reasonable potency at σ sites

Q: And the “selectivity for σ receptors (in words)” value (SIGMA RECEPTOR)?
A: high selectivity for σ receptors

Q: What about the “SIGMA RECEPTOR SLOPE” value (SIGMA RECEPTOR; Table 2) of the same molecule?
A: 0.66 ± 0.07

Q: What about the IC50 (SIGMA RECEPTOR; [1]) of the same molecule?
A: 1.32 µM

Q: `COc1ccc(C2(CN3CCCCC3)CCCCC2)cc1` [Compound 27] was tested. Which IC50 (PCP RECEPTOR; [1]) did it give?
A: > 25 µM

Q: And the “potency at σ receptors (in words)” value (SIGMA RECEPTOR)?
A: slightly lower σ receptor potencies

Q: And the “selectivity for σ receptors (in words)” value (SIGMA RECEPTOR)?
A: substantially increases selectivity for σ receptors

Q: What about the “SIGMA RECEPTOR SLOPE” value (SIGMA RECEPTOR; Table 2) of the same molecule?
A: 0.69 ± 0.04

Q: What about the IC50 (SIGMA RECEPTOR; [1]) of the same molecule?
A: 0.221 µM

Q: What does the source list for `Oc1cccc(C2(CN3CCCCC3)CCCCC2)c1` [Compound 21]?
A: IC50 (PCP RECEPTOR; [1]): > 25 µM; potency at σ receptors (in words) (SIGMA RECEPTOR): diminished binding to σ receptors; IC50 (SIGMA RECEPTOR; [1]): > 25 µM

Q: Which results are given for `O=C(OCCN1CCCC1)C1(c2ccccc2)CCCC1` [Compound 46]?
A: IC50 (PCP RECEPTOR; Table 3, cycloalkyl ring size): > 25 µM; SIGMA RECEPTOR SLOPE (SIGMA RECEPTOR; Table 3): 0.68 ± 0.06; IC50 (SIGMA RECEPTOR; Table 3, cycloalkyl ring size): 0.454 µM

Q: For `COc1ccc(C2(CN(C)C)CCCCC2)cc1OC` [Compound 43], which IC50 (PCP RECEPTOR; [1]) is on record?
A: > 25 µM

Q: And the “potency at σ receptors (in words)” value (SIGMA RECEPTOR)?
A: poor to reasonable potency at σ sites

Q: What about the “selectivity for σ receptors (in words)” value (SIGMA RECEPTOR) of the same molecule?
A: high selectivity for σ receptors

Q: And the “SIGMA RECEPTOR SLOPE” value (SIGMA RECEPTOR; Table 2)?
A: 0.66 ± 0.13

Q: And the IC50 (SIGMA RECEPTOR; [1])?
A: 9.05 µM

Q: With `COc1ccc(C2(CN3CCCCC3)CCCCC2)cc1OC` [Compound 28] as the molecule, how does the IC50 (PCP RECEPTOR; [1]) read?
A: > 25 µM

Q: What about the “potency at σ receptors (in words)” value (SIGMA RECEPTOR) of the same molecule?
A: slightly lower σ receptor potencies; also recorded: poor to reasonable potency at σ sites

Q: And the “selectivity for σ receptors (in words)” value (SIGMA RECEPTOR)?
A: substantially increases selectivity for σ receptors; also recorded: high selectivity for σ receptors

Q: What about the “SIGMA RECEPTOR SLOPE” value (SIGMA RECEPTOR; Table 2) of the same molecule?
A: 0.56 ± 0.03

Q: And the IC50 (SIGMA RECEPTOR; [1])?
A: 0.387 ± 0.018 µM

Q: With `c1ccc(C2(CCN3CCCC3)CCCCC2)cc1` [Compound 7] as the molecule, how does the “potency at PCP receptors (in words)” value (PCP RECEPTOR) read?
A: decreased the potency in the PCP receptor assay

Q: What about the IC50 (PCP RECEPTOR; Table 1, mean ± error (n)) of the same molecule?
A: 1.72 µM

Q: And the IC50 (SIGMA RECEPTOR; Table 1, mean ± error (n))?
A: 0.141 µM

Q: What about the “SIGMA RECEPTOR SLOPE” value (SIGMA RECEPTOR; [2]) of the same molecule?
A: 1.22 ± 0.03

Q: What about the “increased potency for σ receptors” value (SIGMA RECEPTOR; relative to PCPY (5)) of the same molecule?
A: approximately 30 fold

Q: With `CC[N+](C)(CC)CCOC(=O)C1(c2ccccc2)CCCCC1` [Compound 16] as the molecule, how does the “potency at PCP receptors (in words)” value (PCP RECEPTOR) read?
A: inactive in the PCP assay; also recorded: did not increase potency for PCP receptors

Q: And the IC50 (PCP RECEPTOR; Table 1, mean ± error (n))?
A: > 25 µM

Q: What about the “potency at σ receptors (in words)” value (SIGMA RECEPTOR) of the same molecule?
A: σ receptor potency increased; also recorded: effectively reversed the potency for σ receptors

Q: What about the IC50 (SIGMA RECEPTOR; Table 1, mean ± error (n)) of the same molecule?
A: 2.23 µM

Q: What about the “SIGMA RECEPTOR SLOPE” value (SIGMA RECEPTOR; [2]) of the same molecule?
A: 0.86 ± 0.07

Q: Which IC50 (PCP RECEPTOR; [1]) does the source give for `Cc1ccc(C2(CN(C)C)CCCCC2)cc1` [Compound 41] here?
A: > 25 µM

Q: What about the “SIGMA RECEPTOR SLOPE” value (SIGMA RECEPTOR; Table 2) of the same molecule?
A: 0.62 ± 0.03

Q: What about the IC50 (SIGMA RECEPTOR; [1]) of the same molecule?
A: 0.541 µM

Q: Which results are given for `COc1ccc(C2(CN3CCCC3)CCCCC2)cc1` [Compound 34]?
A: potency at PCP receptors (in words) (PCP RECEPTOR): inactive at PCP sites; IC50 (PCP RECEPTOR; [1]): > 25 µM; potency at σ receptors (in words) (SIGMA RECEPTOR): somewhat potent; selectivity for σ receptors (in words) (SIGMA RECEPTOR): very selective for σ receptors; SIGMA RECEPTOR SLOPE (SIGMA RECEPTOR; Table 2): 0.80 ± 0.07; IC50 (SIGMA RECEPTOR; [1]): 0.546 µM

Q: Which IC50 (PCP RECEPTOR; [1]) does the source give for `Oc1cccc(C2(CN3CCOCC3)CCCCC2)c1` [Compound 36] here?
A: > 25 µM

Q: What about the IC50 (SIGMA RECEPTOR; [1]) of the same molecule?
A: > 25 µM

Q: Which results are given for `C[N+]1(CCOC(=O)C2(c3ccccc3)CCCCC2)CCCCC1` [Compound 4]?
A: potency at PCP receptors (in words) (PCP RECEPTOR): reduced the potency in the PCP receptor assay; also recorded: drastically reduced potency for both σ and PCP receptors; also recorded: inactive in the PCP assay; also recorded: did not increase potency for PCP receptors; IC50 (PCP RECEPTOR; Table 1, mean ± error (n)): > 25 µM; IC50 (SIGMA RECEPTOR; Table 1, mean ± error (n)): > 25 µM

Q: Which results are given for `CN(C)CC1(c2ccccc2)CCCCC1` [Compound 18]?
A: potency at PCP receptors (in words) (PCP RECEPTOR): inactive in the PCP receptor assay; IC50 (PCP RECEPTOR; Table 1, mean ± error (n)): > 25 µM; IC50 (PCP RECEPTOR; [1]): > 25 µM; potency at σ receptors (in words) (SIGMA RECEPTOR): increased potency for σ receptors; IC50 (SIGMA RECEPTOR; Table 1, mean ± error (n)): 4.13 µM; SIGMA RECEPTOR SLOPE (SIGMA RECEPTOR; [2]): 0.85 ± 0.07; SIGMA RECEPTOR SLOPE (SIGMA RECEPTOR; Table 2): 0.85 ± 0.07; IC50 (SIGMA RECEPTOR; [1]): 4.13 µM
